Values after ≈ are worked out from the molar mass of the structure shown.
System: Mycobacterium tuberculosis
Assay: Antimycobacterial activity against isoniazid-resistant Mycobacterium tuberculosis by agar dilution method
Format: functional

Row | SMILES | MIC90
1 | COc1cc2c(cc1OC)C(=O)[C@]1(C2)[C@@H](c2ccccc2Cl)[C@@H]2CSCN2[C@@]12C(=O)Nc1ccc(OC(F)(F)F)cc12 | 36.4 µM (≈ 22.5 µg/mL)
2 | COc1ccc([C@H]2[C@@H]3CSCN3[C@@]3(C(=O)Nc4ccc(OC(F)(F)F)cc43)[C@@]23Cc2cc(OC)c(OC)cc2C3=O)cc1OC | 22.2 µM (≈ 14.3 µg/mL)
3 | COc1cc2c(cc1OC)C(=O)[C@]1(C2)[C@@H](c2ccccc2)[C@@H]2CSCN2[C@@]12C(=O)N(N1CCOCC1)c1ccccc12 | > 6.25 µM
4 | COc1cc2c(cc1OC)C(=O)[C@]1(C2)[C@@H](c2ccccc2)[C@@H]2CSCN2[C@@]12C(=O)Nc1ccc(OC(F)(F)F)cc12 | > 6.25 µM
5 | COc1ccc([C@H]2[C@@H]3CSCN3[C@@]3(C(=O)N(N4CCOCC4)c4ccccc43)[C@@]23Cc2cc(OC)c(OC)cc2C3=O)cc1OC | 24.2 µM (≈ 15.6 µg/mL)
6 | COc1cc2c(cc1OC)C(=O)[C@]1(C2)[C@@H](c2ccc(F)cc2)[C@@H]2CSCN2[C@@]12C(=O)N(N1CCOCC1)c1ccccc12 | 35.1 µM (≈ 21.1 µg/mL)
7 | COc1cc2c(cc1OC)C(=O)[C@]1(C2)[C@@H](c2ccc(F)cc2)[C@@H]2CSCN2[C@@]12C(=O)Nc1ccc(OC(F)(F)F)cc12 | 16.6 µM (≈ 9.99 µg/mL)
8 | NNC(=O)c1ccncc1 [ISONIAZID] | 11.2 µM (≈ 1.54 µg/mL)
9 | COc1cc2c(cc1OC)C(=O)[C@]1(C2)[C@@H](c2ccccc2Cl)[C@@H]2CSCN2[C@@]12C(=O)N(N1CCOCC1)c1ccccc12 | 18.3 µM (≈ 11.3 µg/mL)

Reference: ChEMBL document CHEMBL2203242, “A regio- and stereoselective 1,3-dipolar cycloaddition for the synthesis of new-fangled dispiropyrrolothiazoles as antimycobacterial agents” (Bioorg Med Chem Lett, 2012)
